Assay results as given in PubChem BioAssay (NCI).
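The compound was tested at five concentrations on cells cultured in 96-well plates, with a 48-hour exposure period. TGI: concentration producing complete growth inhibition.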

Legend:
Experiment in all cases: growth of human tumour cells (NCI), 48 h
[1] = test system: A498 renal
[2] = test system: ACHN renal
[3] = test system: CAKI-1 renal
[4] = test system: COLO 205 colon
[5] = test system: HCT-116 colon
[6] = test system: HCT-15 colon
[7] = test system: HOP-92 NSCLC
[8] = test system: IGROV1 ovarian
[9] = test system: K-562 leukemia
[10] = test system: M14 melanoma
[11] = test system: NCI-H23 lung
[12] = test system: OVCAR-5 ovarian
[13] = test system: OVCAR-8 ovarian
[14] = test system: RPMI-8226 leukemia
[15] = test system: SF-539 CNS
[16] = test system: SK-MEL-5 melanoma
[17] = test system: SK-OV-3 ovarian
[18] = test system: SNB-19 CNS
[19] = test system: SNB-75 CNS
[20] = test system: TK-10 renal

What does the source list for `Cc1ccc(N=Nc2ccc(N)cc2C)c(S(N)(=O)=O)c1`?
TGI [1]: > 100 µM; TGI [2]: > 100 µM; TGI [3]: > 100 µM; TGI [4]: > 100 µM; TGI [5]: > 100 µM; TGI [6]: > 100 µM; TGI [7]: 99.5 µM; TGI [8]: > 100 µM; TGI [9]: > 100 µM; TGI [10]: > 100 µM; TGI [11]: > 100 µM; TGI [12]: > 100 µM; TGI [13]: > 100 µM; TGI [14]: > 100 µM; TGI [15]: > 100 µM; TGI [16]: > 100 µM; TGI [17]: > 100 µM; TGI [18]: > 100 µM; TGI [19]: > 100 µM; TGI [20]: > 100 µM

For `OC(c1cc(-c2ccc(Cl)cc2)nc2ccccc12)C1CCCCN1` (stereo unspecified), which TGI [1] is on record?
The TGI was 3.54 µM.

What about the TGI [2] of the same molecule?
Its TGI is 4.1 µM.

And the TGI [3]?
The TGI was 6.44 µM.

And the TGI [4]?
The TGI was 3.19 µM.

What about the TGI [5] of the same molecule?
The TGI was 3.74 µM.

And the TGI [6]?
Its TGI is 6.11 µM.

And the TGI [7]?
The TGI was 12.2 µM.

What about the TGI [9] of the same molecule?
The TGI was 3.13 µM.

And the TGI [10]?
The TGI was 3.37 µM.

What about the TGI [11] of the same molecule?
The TGI was 4.58 µM.

And the TGI [12]?
Its TGI is 4.94 µM.

And the TGI [13]?
Its TGI is 5.28 µM.

What about the TGI [14] of the same molecule?
The TGI was 3.12 µM.

And the TGI [15]?
Its TGI is 3.52 µM.

And the TGI [16]?
The TGI was 5.9 µM.

And the TGI [17]?
Its TGI is 5.5 µM.

What about the TGI [18] of the same molecule?
Its TGI is 37.6 µM.

And the TGI [20]?
Its TGI is 9.85 µM.

With `O=C(O)NCC1CCCCC1` (tested in a mixture with another compound) as the molecule, how does the TGI [1] read?
The TGI was 34.1 µM.

And the TGI [2]?
The TGI was 48.1 µM.

What about the TGI [3] of the same molecule?
The TGI was greater than 100 µM.

What about the TGI [5] of the same molecule?
The TGI was 88.7 µM.

What about the TGI [6] of the same molecule?
The TGI was 63.6 µM.

What about the TGI [7] of the same molecule?
Its TGI is 24.4 µM.

What about the TGI [8] of the same molecule?
The TGI was 23.3 µM.

What about the TGI [9] of the same molecule?
Its TGI is 35.9 µM.

And the TGI [10]?
Its TGI is greater than 100 µM.

And the TGI [11]?
The TGI was 81.2 µM.

And the TGI [12]?
Its TGI is greater than 100 µM.

What about the TGI [13] of the same molecule?
Its TGI is 31.7 µM.

What about the TGI [14] of the same molecule?
Its TGI is 9.73 µM.

And the TGI [16]?
The TGI was 28.7 µM.

And the TGI [18]?
Its TGI is greater than 100 µM.

What about the TGI [19] of the same molecule?
Its TGI is 36.6 µM.

And the TGI [20]?
The TGI was greater than 100 µM.

`C/C=C(\C)C(=O)OC1C(C)=C2C(C1OC(=O)CCCC)C(C)(OC(C)=O)CC(OC(=O)CCCC)C1(O)C2OC(=O)C1(C)O` (stereo unspecified) was tested. Which TGI [1] did it give?
The TGI was greater than 100 µM.

What about the TGI [2] of the same molecule?
Its TGI is greater than 100 µM.

And the TGI [3]?
The TGI was greater than 92.2 µM.

And the TGI [4]?
Its TGI is 2.58 µM.

And the TGI [5]?
Its TGI is 2.09 µM.

What about the TGI [6] of the same molecule?
Its TGI is greater than 100 µM.

What about the TGI [7] of the same molecule?
The TGI was greater than 100 µM.

And the TGI [8]?
The TGI was greater than 100 µM.

And the TGI [9]?
The TGI was greater than 100 µM.

And the TGI [10]?
Its TGI is 4.53 µM.

And the TGI [11]?
Its TGI is greater than 47.4 µM.

What about the TGI [12] of the same molecule?
The TGI was greater than 93.3 µM.

What about the TGI [13] of the same molecule?
Its TGI is greater than 100 µM.

What about the TGI [14] of the same molecule?
Its TGI is greater than 21.1 µM.

What about the TGI [15] of the same molecule?
Its TGI is greater than 100 µM.

And the TGI [17]?
Its TGI is greater than 100 µM.

And the TGI [18]?
The TGI was greater than 100 µM.

What about the TGI [19] of the same molecule?
Its TGI is 48.6 µM.

And the TGI [20]?
The TGI was greater than 100 µM.

With `Nc1c(C(=O)Nc2ccc(C3=NCCN3)cc2)cccc1C(=O)Nc1ccc(C2=NCCN2)cc1` as the molecule, how does the TGI [1] read?
The TGI was greater than 100 µM.

What about the TGI [3] of the same molecule?
The TGI was greater than 100 µM.

What about the TGI [4] of the same molecule?
Its TGI is greater than 100 µM.

What about the TGI [5] of the same molecule?
Its TGI is greater than 100 µM.

What about the TGI [6] of the same molecule?
Its TGI is greater than 100 µM.

What about the TGI [7] of the same molecule?
Its TGI is greater than 100 µM.

And the TGI [8]?
The TGI was greater than 100 µM.

And the TGI [9]?
Its TGI is greater than 100 µM.

What about the TGI [11] of the same molecule?
The TGI was greater than 100 µM.

And the TGI [12]?
The TGI was greater than 100 µM.

What about the TGI [13] of the same molecule?
Its TGI is greater than 100 µM.

What about the TGI [14] of the same molecule?
The TGI was greater than 100 µM.

What about the TGI [15] of the same molecule?
The TGI was greater than 100 µM.

What about the TGI [16] of the same molecule?
The TGI was greater than 100 µM.

What about the TGI [17] of the same molecule?
Its TGI is greater than 100 µM.

What about the TGI [18] of the same molecule?
The TGI was greater than 100 µM.

What about the TGI [19] of the same molecule?
Its TGI is greater than 100 µM.

Which results are given for `Cc1cc2sc(C)[n+](CCCOS(=O)(=O)[O-])c2cc1C`?
TGI [1]: > 100 µM; TGI [2]: > 100 µM; TGI [3]: > 100 µM; TGI [4]: > 100 µM; TGI [5]: > 100 µM; TGI [6]: > 100 µM; TGI [7]: > 100 µM; TGI [8]: > 100 µM; TGI [9]: > 100 µM; TGI [10]: > 100 µM; TGI [11]: > 100 µM; TGI [12]: > 100 µM; TGI [13]: > 100 µM; TGI [14]: > 100 µM; TGI [15]: > 100 µM; TGI [16]: > 100 µM; TGI [17]: > 100 µM; TGI [18]: > 100 µM; TGI [19]: > 100 µM; TGI [20]: > 100 µM

What does the source list for `O=C(NC1C=Nc2ccc([N+](=O)[O-])cc2NC1=O)c1cc(Cl)cc([N+](=O)[O-])c1` (stereo unspecified)?
TGI [1]: > 100 µM; TGI [2]: > 100 µM; TGI [3]: > 100 µM; TGI [4]: > 100 µM; TGI [5]: > 100 µM; TGI [6]: > 100 µM; TGI [7]: > 100 µM; TGI [8]: > 100 µM; TGI [9]: > 100 µM; TGI [10]: > 100 µM; TGI [11]: > 100 µM; TGI [12]: > 100 µM; TGI [13]: > 100 µM; TGI [14]: > 100 µM; TGI [15]: > 100 µM; TGI [16]: > 100 µM; TGI [17]: > 100 µM; TGI [18]: > 100 µM; TGI [19]: > 100 µM; TGI [20]: > 100 µM
